The source of these data is ChEMBL document CHEMBL1201862, “PubChem BioAssay data set” (2004).

Test systems include HT-29; A549; NCI-H226; NCI-H23; HOP-92; SW-620; RXF 393; M14; OVCAR-8; SNB-75; KM12; TK-10; UO-31; SN12C; SF-295; SF-539; HL-60; SR; T47D; OVCAR-3.
Holding throughout (test): NCI anticancer screen, dose series, 48 h

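Method: 48-hour compound exposure of cells in 96-well plates, five concentrations, linear interpolation of endpoints. Abbreviation: GI50, concentration required for 50% inhibition of growth.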 Activity calls are given as the source filed them. Cut-off read from the data, not from the text of the source: active = GI50 up to about 1.1 µM and inactive = higher.

As to `O=C1CC(c2cccc(Cl)c2)n2cccc21` (stereo not given), the GI50 in the experiment on HT-29 was > 100 µM (inactive); in the experiment on A549, > 100 µM (inactive); in the experiment with NCI-H226, > 100 µM (inactive); in the experiment with NCI-H23, > 100 µM (inactive); in the experiment with HOP-92, 65.3 µM (inactive); with SW-620 it was > 100 µM (inactive). Moreover, the GI50 in the experiment with RXF 393 was > 100 µM (inactive); in the experiment with M14 it was > 100 µM (inactive); with OVCAR-8, > 100 µM (inactive); in the experiment with SNB-75, 47.8 µM (inactive); in the experiment with KM12 it was 77.3 µM (inactive); with TK-10 it was > 100 µM (inactive). In addition, the GI50 with UO-31 is 26.5 µM (inactive); in the experiment on SN12C, > 100 µM (inactive); in the experiment on SF-295 it was > 100 µM (inactive); in the experiment with SF-539, > 100 µM (inactive); in the experiment with HL-60 it was 32.8 µM (inactive); with SR, 90.2 µM (inactive). The GI50 was 44.2 µM (inactive) in the experiment on T47D and > 100 µM (inactive) with OVCAR-3.

Consider `CC[N+](C)(CC)Cc1ccccc1[N+](=O)[O-]`, for which the GI50 is 36.1 µM (inactive) in the experiment with HT-29; > 100 µM (inactive) with A549; 64.7 µM (inactive) in the experiment on NCI-H226; > 100 µM (inactive) in the experiment with NCI-H23; > 100 µM (inactive) with HOP-92; 87.7 µM (inactive) in the experiment on SW-620. Moreover, the GI50 was > 100 µM (inactive) with RXF 393; > 100 µM (inactive) with M14; 39.8 µM (inactive) in the experiment with OVCAR-8; > 100 µM (inactive) with SNB-75; > 100 µM (inactive) in the experiment on KM12; > 100 µM (inactive) in the experiment on TK-10. Also, the GI50 in the experiment with UO-31, in the experiment on SN12C, in the experiment with SF-295, in the experiment on SF-539, in the experiment with HL-60 and with SR was > 100 µM (inactive) each time. The values for the GI50 with T47D and in the experiment on OVCAR-3 were > 100 µM (inactive) and 26.9 µM (inactive), respectively.

For the compound `CCCCCC(C/C=N/N(C)C)C(O)(C(F)(F)F)C(F)(F)F` (stereo not given), the GI50 in the experiment with HT-29 was 29 µM (inactive); in the experiment on A549 it was 37.2 µM (inactive); in the experiment on NCI-H226, 41.5 µM (inactive); with NCI-H23, 25.2 µM (inactive); with HOP-92 it was 33 µM (inactive); in the experiment with SW-620, 38 µM (inactive). Also, the GI50 is 32 µM (inactive) in the experiment with RXF 393; 38.7 µM (inactive) in the experiment with M14; 41.5 µM (inactive) with OVCAR-8; 29 µM (inactive) with SNB-75; 36.3 µM (inactive) in the experiment on KM12; 54.2 µM (inactive) in the experiment on TK-10. Moreover, the GI50 was 36.2 µM (inactive) in the experiment on UO-31; 28.2 µM (inactive) in the experiment on SN12C; 42.5 µM (inactive) in the experiment with SF-295; 35.2 µM (inactive) with SF-539; 14.2 µM (inactive) in the experiment with HL-60; 34.8 µM (inactive) in the experiment on SR. For the same compound, the GI50 was 25.9 µM (inactive) with T47D and 9.31 µM (inactive) in the experiment with OVCAR-3.

As to `O=C(Nc1cccc(C(F)(F)F)c1)C(=O)C(C(=O)c1ccc2ccccc2c1)C1OC(=O)c2ccccc21` (stereo not given), the GI50 with HT-29 was 13.5 µM (inactive); with A549, 10.7 µM (inactive); in the experiment with NCI-H226 it was 2.89 µM (inactive); in the experiment with NCI-H23 it was 6.46 µM (inactive); with HOP-92, 22.8 µM (inactive); in the experiment on SW-620 it was 6.25 µM (inactive). Also, the GI50 in the experiment on RXF 393 is 4.16 µM (inactive); with M14, 13 µM (inactive); in the experiment on OVCAR-8, 6.35 µM (inactive); in the experiment with SNB-75 it was 12 µM (inactive); in the experiment with KM12, 12.2 µM (inactive); in the experiment with TK-10, 22.6 µM (inactive). Besides, the GI50 with UO-31 is 12.4 µM (inactive); in the experiment on SN12C, 13.2 µM (inactive); in the experiment on SF-295, 5.19 µM (inactive); in the experiment on SF-539, 2.23 µM (inactive); in the experiment with HL-60 it was 7.69 µM (inactive); in the experiment with SR, 3.24 µM (inactive). The results for the GI50 with T47D and with OVCAR-3 were 8.99 µM (inactive) and 16 µM (inactive), respectively.

As for `CC(=O)OCC1OC(n2c(-c3cccs3)c3c(c(C#N)c2=S)-c2ccccc2CC3)C(OC(C)=O)C(OC(C)=O)C1OC(C)=O` (stereo not given), the GI50 in the experiment on HT-29 was 5.31 µM (inactive); with A549, 13.2 µM (inactive); in the experiment on NCI-H226, 28.4 µM (inactive); in the experiment on NCI-H23, 19.5 µM (inactive); in the experiment on HOP-92 it was 2.51 µM (inactive); with SW-620 it was 15.5 µM (inactive). For the same compound, the GI50 with RXF 393 was 8.28 µM (inactive); with M14 it was 7.67 µM (inactive); with OVCAR-8 it was 5.38 µM (inactive); in the experiment with SNB-75, 1.36 µM (inactive); with KM12, 9.14 µM (inactive); with TK-10 it was 6.19 µM (inactive). Also, the GI50 with UO-31 is 2.97 µM (inactive); in the experiment with SN12C, 20.2 µM (inactive); with SF-295, 13.7 µM (inactive); in the experiment on SF-539, 9.57 µM (inactive); in the experiment on HL-60, 2.64 µM (inactive); with SR it was 3.05 µM (inactive). The GI50 in the experiment with T47D was 5.07 µM (inactive); in the experiment with OVCAR-3, 10.4 µM (inactive).

Consider `Nc1ncnc2oc(C3OC(COC(=O)c4ccccc4)C(OC(=O)c4ccccc4)C3OC(=O)c3ccccc3)nc12` (stereo not given), for which the GI50 with HT-29, in the experiment with A549, with NCI-H226, in the experiment on NCI-H23, with HOP-92 and in the experiment with SW-620 was > 100 µM (inactive) each time. For the same compound, the GI50 was > 100 µM (inactive) in the experiment on RXF 393; > 100 µM (inactive) with M14; > 100 µM (inactive) with OVCAR-8; 29.2 µM (inactive) in the experiment with SNB-75; > 100 µM (inactive) in the experiment on KM12; > 100 µM (inactive) with TK-10. For the same compound, the GI50 with UO-31, in the experiment with SN12C, with SF-295, in the experiment on SF-539, with HL-60 and with SR was > 100 µM (inactive) in each case. Further, the GI50 is 21.1 µM (inactive) in the experiment on T47D and > 100 µM (inactive) with OVCAR-3.

For the compound `O=C1C=CC(=O)c2c1ccc1c3ccccc3n(CCCCCCCCCCCCn3c4ccccc4c4ccc5c(c43)C(=O)C=CC5=O)c21`, the GI50 in the experiment with HT-29, in the experiment with A549, in the experiment with NCI-H226, in the experiment with NCI-H23, with HOP-92 and in the experiment on SW-620 was > 100 µM (inactive) in each case. Besides, the GI50 with RXF 393, in the experiment with M14, in the experiment with OVCAR-8, in the experiment on SNB-75, in the experiment on KM12 and in the experiment with TK-10 was > 100 µM (inactive) throughout. In addition, the GI50 in the experiment on UO-31 was > 100 µM (inactive); in the experiment with SN12C, > 100 µM (inactive); in the experiment on SF-295, > 100 µM (inactive); in the experiment on SF-539 it was > 100 µM (inactive); in the experiment with HL-60, 46.7 µM (inactive); in the experiment with SR, 50.5 µM (inactive). The GI50 with T47D and in the experiment with OVCAR-3 was > 100 µM (inactive) throughout.

For `CC(=O)c1c2c(c3ccccc3c1O)O[C@@H]1OCC[C@H]21`, the GI50 with HT-29, with A549, in the experiment with NCI-H226, in the experiment on NCI-H23, in the experiment with HOP-92 and in the experiment with SW-620 was > 100 µM (inactive) throughout. Moreover, the GI50 was > 100 µM (inactive) in the experiment on RXF 393; > 100 µM (inactive) with M14; > 100 µM (inactive) in the experiment on OVCAR-8; 11.5 µM (inactive) with SNB-75; > 100 µM (inactive) in the experiment on KM12; > 100 µM (inactive) in the experiment on TK-10. The GI50 in the experiment on UO-31, with SN12C, in the experiment with SF-295, in the experiment with SF-539, in the experiment on HL-60 and with SR was > 100 µM (inactive) throughout. The GI50 in the experiment with T47D and with OVCAR-3 was > 100 µM (inactive) in each case.

In the case of `CC1OC(OC2C(O[C@H]3CC[C@@]4(C)C(=CC[C@H]5[C@@H]6C[C@@H]7O[C@]8(CC[C@@H](C)CO8)[C@@H](C)[C@@H]7[C@@]6(C)CC[C@@H]54)C3)OC(CO)C(O)C2O)C(O)C(O)C1O` (stereo not given in full), the GI50 in the experiment with HT-29 was 0.962 µM (active); in the experiment with A549 it was 0.647 µM (active); with NCI-H226, 2.49 µM (inactive); in the experiment on NCI-H23 it was 2.28 µM (inactive); in the experiment with HOP-92 it was 2.95 µM (inactive); in the experiment with SW-620 it was 0.681 µM (active). Besides, the GI50 was 1.54 µM (inactive) with RXF 393; 1.22 µM (inactive) in the experiment with M14; 1.45 µM (inactive) with OVCAR-8; 1.24 µM (inactive) in the experiment on SNB-75; 0.838 µM (active) in the experiment with KM12; 1.53 µM (inactive) with TK-10. In addition, the GI50 was 0.638 µM (active) in the experiment with UO-31; 1.1 µM (active) in the experiment with SN12C; 1.15 µM (inactive) in the experiment with SF-295; 1.21 µM (inactive) in the experiment with SF-539; 0.74 µM (active) with HL-60; 2.77 µM (inactive) in the experiment with SR. Further, the GI50 is 3.76 µM (inactive) in the experiment with T47D and 3.4 µM (inactive) with OVCAR-3.

As for `CN(O)C(=O)Cc1ccc(OCc2cccc(Cl)c2)cc1`, the GI50 in the experiment with HT-29, in the experiment with A549, in the experiment with NCI-H226, in the experiment on NCI-H23, with HOP-92 and in the experiment with SW-620 was > 100 µM (inactive) each time. Besides, the GI50 in the experiment on RXF 393, in the experiment with M14, with OVCAR-8, in the experiment on SNB-75, with KM12 and in the experiment with TK-10 was > 100 µM (inactive) in each case. Further, the GI50 in the experiment with UO-31, in the experiment on SN12C, in the experiment with SF-295, in the experiment on SF-539, with HL-60 and in the experiment with SR was > 100 µM (inactive) throughout. Besides, the GI50 in the experiment on T47D is 40.4 µM (inactive); with OVCAR-3, > 100 µM (inactive).
